Where “and” joins values, the source holds several entries; their conditions need not be identical. Equal entries are not always repeated. Where two headings read alike, the source gives them in different places.
Columns and labels:
[1] = test system: PHE-precontracted rat aorta with endothelium (E+); experiment: Vasodilator effect in PHE-precontracted rat aortic rings with intact endothelium (E+); assay type: cell-based; conditions: for EC50: read-out: EC50 (concentration required to achieve 50% relaxation of tissue)
Experimental: (§1) 3-5 months old rats with an average weight of 270±30 g, were used for vascular reactivity experiments.
(§2) Measure of Dilation Activity in Rat Aortic Rings
(§3) Obtaining Aorta rings: Group II rats fasted 24 hours were euthanized by cervical fracture. Thoracic aorta was excised carefully from distal to proximal, from the abdominal aortic bifurcation to aortic arch and placed in a Petri dish containing Krebs-Ringer solution at room temperature with the following composition: 120 mM NaCl; 4.2 mM KCl; 1.18 mM KH2PO4; 1.2 mM MgSO4; 1.3 mM CaCl2; 5 mM C6H12O6; and 25 mM NaHCO3 pH 7.4 and constantly gasified with a mixture of 95% O2 and 5% CO2. After removing blood, fat and connective tissue, the aorta was transversely cut in cylindrical rings 2-3 mm in diameter.
(§4) Mounting of Rings: Each ring was mounted between two triangular stainless steel hooks, one hook was suspended in a glass rod (anchorage) and placed in a Single Organ Chamber with 10 ml Krebs-Ringer constantly aerated with 95% O2 and 5% CO2 gaseous mixture and maintained at 37° C. by thermo regulated pump. The second hook was connected by a thread to an Isometric Force Transducer XDCR (Radnoti Glass Technology Inc. USA.), connected to a data acquisition unit PowerLab 8/30 (ADInstruments). The data were processed using LabChart 7 Pro software, provided by ADInstruments.
(§5) Conditioning of Tissue: After being mounted rings were left to rest with no tension for 30 minutes. Subsequently Krebs-Ringer solution was replaced and rings were allowed to rest for 10 minutes. The rings were then carefully tensioned twice at intervals of 10 minutes each at 1.00 g tension value using micromanipulators. Two settings of tension at 1.40 g at 10 minutes interval each were then made. After the period of stabilization of the tissue, tissue viability was assessed by the addition of solution of 60 mM potassium chloride (KCl). After 10 minutes of contraction of the tissue, it was washed twice at intervals of 5 minutes each before the next addition of KCl.
(§6) Measure of vasodilatory activity: The aortic tissue with endothelium already conditioned was applied a tension of 1.4 g, 1 μM PHE solution was added after 10 minutes. PHE was added cumulatively to each single organ bath after stabilization of PHE-induced contractile response. Stock solutions of 10^−1 M concentration in DMSO were prepared to determine the vasodilatory activity of the isolated metabolites. […] The vasodilator effect was recorded for a period of 30 minutes for each of the concentrations used (FIG. 1). The results are expressed as relaxation percent using the following formula: […]
(§7) wherein R1 is the response induced by PHE and R2 is the response after the extracts are added.
(§8) Endothelium integrity was tested by addition of 1 μM ACh to rings precontracted with 1 uM PHE, and rings were considered with intact endothelium when the ACh dilator response was greater than 80%. While rings with response lower than 10% were discarded (FIG. 2).
(§9) Vascular reactivity experiments were performed to establish the vasodilator action of the isolated compounds. For this, compounds at concentration of 10^−4M were added to the organ chamber, the vasodilatory effect in rings with intact endothelium (E+) and without endothelium (E−) pre-contracted with 1 μM PHE was quantified. We performed parallel vehicle control (DMSO) to discard the relaxing effect of aortic tissue.

[2] = test system: PHE-precontracted rat aorta without endothelium (E−); experiment: Vasodilator effect in PHE-precontracted rat aortic rings without endothelium (E−); assay type: cell-based; conditions: for Emax at 100 µM: read-out: Emax, maximum relaxation effect; for EC50: dose-response curve; for Emax: read-out: Emax (% relaxation) of dose-response curve
Experimental: as §1, §2, §3, §4, §5, §6, §7, §8, §9

anesthetized rats = experiment: In vivo hypotensive effect in anesthetized rats (mean blood pressure after intravenous administration); conditions: for % MBP reduction / MBP: mean ± SE
Experimental: Animals used were female albino rats of the Sprague-Dawley strain, obtained from the vivarium of the Universidad de Antofagasta. Two groups of animals were used separated by age:
10-14 months old rats with an average weight of 400±70 g, were used for in vivo experiments. These animals were chosen according to their baseline health status of mild hypertension.
In Vivo Tests—Hypotensive Effect in Anesthetized Rats In vivo experiments were performed using the following protocol. Group I rats were anesthetized with a 5% sodium thiopental aqueous solution at doses of 50 mg/kg animal body weight by intraperitoneal injection. The femoral vein was exposed and cannulated with a PE-10 […] catheter for administering extracts, metabolites and drugs. The right carotid artery was exposed and cannulated using a PE-50 […] catheter filled with heparinized saline (100 IU/mL). This catheter was connected to a pressure transducer (TSD104A) coupled to a data acquisition unit MP100 (BIOPAC Systems Inc) for recording blood pressure. The trachea was exposed and cannulated to facilitate spontaneous breathing of animals. Simultaneously, an ECG recording in derivation II (DII-ECG) was performed using an ECG100B (BIOPAC Systems Inc) module connected to a data acquisition unit MP100. The level of anesthesia of the animals was under constant supervision, so as to remain within surgical levels.
Prior to administration of the next dose, blood pressure and ECG recording were monitored until complete recovery of baseline parameters (pressure and ECG). Effects of each administered dose was measured relative to changes in mean blood pressure, diastolic blood pressure, systolic blood pressure, electrocardiographic changes and compared against the effect of propranolol as a positive control at concentration of 10 mg/Kgweight. After completion of each experiment animals were euthanized by an overdose of anesthetic, by femoral route. The results are expressed as % reduction in BMP, parameter determined using the following equation.
Wherein B is the baseline BMP and E is the value of BMP produced by different doses studied.
All records were performed using 3.9.6.1 Acknowledge software (BIOPAC Systems Inc) and statistical analysis was performed using GraphPad Prism 5.03 software (GraphPad Software Inc.)

[3] = Rattus norvegicus, compound at 10^−4 M, rings with intact endothelium (E+) pre-contracted with 1 μM PHE, FIG. 5A, read-out: Emax (% relaxation)
[4] = Rattus norvegicus, dose-response curve, E+
[5] = Rattus norvegicus, maximum effect at 10^−4 M, increasing doses, E+, read-out: Emax (% relaxation) of dose-response curve
[6] = Rattus norvegicus, compound at 10^−4 M, rings without endothelium (E−) pre-contracted with 1 μM PHE, FIG. 5B
[7] = Rattus norvegicus, increasing doses up to 10^−4 M, E−
[8] = positive control, propranolol 10^−6 M
[9] = dose 10^−8 (head: mg/Kgweight; text: M), intravenous
[10] = dose 10^−9 (head: mg/Kgweight; text: M), intravenous
[11] = dose 10^−10 (head: mg/Kgweight; text: M), intravenous

SMILES: C=C(C)[C@@H]1Cc2cc(C(C)=O)c(O)cc2O1 [Metabolite (B), 6-hydroxy-2-isopropenyl-5-acetyl-2,3-dihydrobenzofuran]
- Emax at 100 µM [1, 3]: 135 ± 3.78%
- EC50 [1, 4]: 7.16 nM
- Emax at 100 µM [1, 5]: 112 ± 6.21%
- concentration from which the vasodilator effect started ([1]; dose-response curve, E+): ≥ 10^−8 M
- Emax at 100 µM [2, 6]: 146 ± 4.49%
- EC50 ([2]; Rattus norvegicus, E−): 5.94 nM
- Emax [2, 7]: 109 ± 7.53%

SMILES: CC(=O)OCC[N+](C)(C)C [ACh, acetylcholine, reference compound]
- Emax at 1 µM ([1]; Rattus norvegicus, 10^−6 M ACh, rings with intact endothelium (E+), FIG. 5A, read-out: Emax (% relaxation), positive control): 105 ± 5%

SMILES: CC(C)NCC(O)COc1cccc2ccccc12 (centres unmarked) [propranolol, reference compound]
- % MBP reduction (anesthetized rats; [8]): 18.99 ± 4.35% and 22.29 ± 3.20%
- MBP (anesthetized rats; [8]): 110.1 ± 6.03 mmHg and 108.70 ± 8.55 mmHg

SMILES: CC(C)=CCc1cc(/C(C)=N/O)ccc1O [Oxime (1), 4-hydroxy-3-(isopenten-2-yl)-acetophenoxime]
- Emax at 100 µM [1, 3]: 130 ± 2.54%
- EC50 [1, 4]: 6 nM
- Emax at 100 µM [1, 5]: 119 ± 3.92%
- tissue relaxation ([1]; at concentration 10^−5 M, dose-response curve, E+): 101.6±0.90%
- concentration from which the vasodilator effect started ([1]; dose-response curve, E+): ≥ 10^−9 M
- Emax at 100 µM [2, 6]: 120 ± 1.74%
- EC50 ([2]; Rattus norvegicus, E−): 6.56 nM
- Emax [2, 7]: 114 ± 6.19%
- % MBP reduction (anesthetized rats; dose 10^−7 (head: mg/Kgweight; text: M), intravenous, maximum effect): 70.61 ± 4.32%
- % MBP reduction (anesthetized rats; dose 10^−7 (head: mg/Kgweight; text: M), intravenous, maximum effect, listed as oxime (1)): 70.61±4.32%
- MBP (anesthetized rats; dose 10^−7 (head: mg/Kgweight; text: M), intravenous): 41.65 ± 0.85 mmHg
- % MBP reduction (anesthetized rats; [9]): 58.31 ± 3.26%
- MBP (anesthetized rats; [9]): 59.05 ± 2.09 mmHg
- % MBP reduction (anesthetized rats; [10]): 38.41 ± 2.35%
- MBP (anesthetized rats; [10]): 87.28 ± 1.90 mmHg
- % MBP reduction (anesthetized rats; [11]): 36.60 ± 7.90%
- MBP (anesthetized rats; [11]): 89.84 ± 10.88 mmHg
- concentration from which the effect on MBP starts being significant (anesthetized rats; intravenous, anesthetized rats): ≥ 10^−9 M
- doses that induced acute hypotension and subsequent animal death by cardiac arrest (anesthetized rats; intravenous, anesthetized rats): higher than 10^−7 M

SMILES: C=C(C)C1Cc2cc(C(C)=NO)c(O)cc2O1 (centres unmarked) [Oxime (2), 6-hydroxy-2-isopropenyl-5-acetyloxime-2,3-dihydrobenzofuran]
- Emax (% relaxation) ([1]; compound at 10^−4 M, rings with intact endothelium (E+) pre-contracted with 1 μM PHE, FIG. 5A): 118.4±0.93%
- concentration from which the vasodilator effect started ([1]; dose-response curve, E+): ≥ 10^−8 M
- EC50 ([1]; dose-response curve, E+): 4.3 nM
- Emax (% relaxation) of dose-response curve ([1]; maximum effect at 10^−4 M, increasing doses, E+): 109.3±2.72%
- Emax, maximum relaxation effect ([2]; compound at 10^−4 M, rings without endothelium (E−) pre-contracted with 1 μM PHE, FIG. 5B): 117.7±1.00%
- EC50 ([2]; E−): 4.65 nM
- Emax (% relaxation) of dose-response curve ([2]; increasing doses up to 10^−4 M, E−): 110.3±4.40%

SMILES: CC(=O)c1ccc(O)c(CC=C(C)C)c1 [Metabolite (A), 4-hydroxy-3-(isopenten-2-yl)-acetophenone]
- Emax at 100 µM [1, 3]: 122 ± 2.09%
- EC50 [1, 4]: 8.98 nM
- Emax at 100 µM [1, 5]: 111 ± 7.62%
- concentration from which the vasodilator effect started ([1]; dose-response curve, E+): ≥ 10^−8 M
- Emax at 100 µM [2, 6]: 118 ± 10.7%
- EC50 ([2]; Rattus norvegicus, E−): 7.31 nM
- Emax [2, 7]: 109 ± 7.53%
- % MBP reduction (anesthetized rats; dose 10^−4 M, intravenous): 46.93±1.01%
- MBP (anesthetized rats; dose 10^−4 M, intravenous): 72.12 ± 2.92 mmHg
- % MBP reduction (anesthetized rats; dose 10^−4 M, intravenous, listed as Metabolite 1): 46.93 ± 1.01%
- % MBP reduction (anesthetized rats; dose 10^−5 M, intravenous): 45.37 ± 1.09%
- MBP (anesthetized rats; dose 10^−5 M, intravenous): 74.24 ± 2.76 mmHg
- % MBP reduction (anesthetized rats; dose 10^−6 M, intravenous): 35.92 ± 2.01%
- MBP (anesthetized rats; dose 10^−6 M, intravenous): 87.09 ± 1.14 mmHg
- % MBP reduction (anesthetized rats; dose 10^−7 M, intravenous): 29.68 ± 3.42%
- MBP (anesthetized rats; dose 10^−7 M, intravenous): 95.56 ± 5.01 mmHg
- % MBP reduction (anesthetized rats; dose 10^−8 M, intravenous): 25.68 ± 5.24%
- MBP (anesthetized rats; dose 10^−8 M, intravenous): 101.0 ± 8.06 mmHg
- % MBP reduction (anesthetized rats; dose 10^−9 M, intravenous): 23.62 ± 5.76%
- MBP (anesthetized rats; dose 10^−9 M, intravenous): 103.8 ± 7.98 mmHg
- % MBP reduction (anesthetized rats; dose 10^−10 M, intravenous): 16.56 ± 9.38%
- MBP (anesthetized rats; dose 10^−10 M, intravenous): 113.4 ± 12.59 mmHg
- concentration from which the effect on MBP starts being significant (anesthetized rats; intravenous, anesthetized rats): ≥ 10^−6 M
